Patent US11590089B2, “Beta-2 selective adrenergic receptor agonists” (The Board of Trustees of the Leland Stanford Junior …, priority 2017, dated 2023)
Counter-ions that a name gives are not always drawn. Like-named read-outs stand apart in the source and are kept apart here.

Assays:
[1] = biological target: T1, α2A-AR (Homo sapiens, UniProt P08913); assay: radioligand binding assay, α2A-AR, [3H]RX821002; conditions: radioligand [3H]RX821002; values given as a range are from screening experiments with a low number of repeats
T1 sequence (P08913 1-465): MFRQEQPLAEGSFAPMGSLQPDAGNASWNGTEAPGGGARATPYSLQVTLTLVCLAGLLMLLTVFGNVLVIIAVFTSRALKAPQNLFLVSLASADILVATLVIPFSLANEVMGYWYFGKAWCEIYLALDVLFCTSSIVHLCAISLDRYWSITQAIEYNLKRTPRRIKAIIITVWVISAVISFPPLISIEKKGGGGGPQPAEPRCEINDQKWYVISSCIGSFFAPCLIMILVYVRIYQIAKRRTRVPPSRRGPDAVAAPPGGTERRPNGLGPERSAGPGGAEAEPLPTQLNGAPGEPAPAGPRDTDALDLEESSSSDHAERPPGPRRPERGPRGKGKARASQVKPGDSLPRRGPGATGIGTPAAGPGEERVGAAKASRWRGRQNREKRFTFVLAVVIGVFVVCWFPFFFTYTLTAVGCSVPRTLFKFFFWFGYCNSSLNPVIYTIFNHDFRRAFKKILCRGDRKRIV

[2] = biological target: T2, β1-AR (Homo sapiens, UniProt P08588); assay: radioligand binding assay, β1-AR, [3H]CGP12177; conditions: values given as a range are from screening experiments with a low number of repeats
Method: (§1) The binding affinities of exemplary compounds of interest at β1AR and β2AR were evaluated in a binding assay.
Target sequence in this assay (P08588 whole entry): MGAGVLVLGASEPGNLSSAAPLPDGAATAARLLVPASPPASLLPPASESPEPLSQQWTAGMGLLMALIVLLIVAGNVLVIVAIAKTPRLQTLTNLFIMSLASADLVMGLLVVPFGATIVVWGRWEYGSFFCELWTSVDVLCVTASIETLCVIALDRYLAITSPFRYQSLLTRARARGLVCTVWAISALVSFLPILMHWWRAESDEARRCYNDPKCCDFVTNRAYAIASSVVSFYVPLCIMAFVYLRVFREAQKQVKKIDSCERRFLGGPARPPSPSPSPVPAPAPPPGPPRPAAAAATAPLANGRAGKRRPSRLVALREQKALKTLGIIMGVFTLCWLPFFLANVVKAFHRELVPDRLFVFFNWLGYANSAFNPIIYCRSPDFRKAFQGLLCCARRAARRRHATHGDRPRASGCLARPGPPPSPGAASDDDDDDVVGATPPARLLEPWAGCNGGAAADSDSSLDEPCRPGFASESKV

[3] = biological target: T3, β2-AR (Homo sapiens, UniProt P07550); assay: β-arrestin-2 recruitment assay at β2-AR; format: cell-based; conditions: for EC50: ranges from screening experiments with a low number of repeats; for β-arrestin-2 recruitment β2-AR Emax: relative to norepinephrine
Target sequence in this assay (P07550 whole entry): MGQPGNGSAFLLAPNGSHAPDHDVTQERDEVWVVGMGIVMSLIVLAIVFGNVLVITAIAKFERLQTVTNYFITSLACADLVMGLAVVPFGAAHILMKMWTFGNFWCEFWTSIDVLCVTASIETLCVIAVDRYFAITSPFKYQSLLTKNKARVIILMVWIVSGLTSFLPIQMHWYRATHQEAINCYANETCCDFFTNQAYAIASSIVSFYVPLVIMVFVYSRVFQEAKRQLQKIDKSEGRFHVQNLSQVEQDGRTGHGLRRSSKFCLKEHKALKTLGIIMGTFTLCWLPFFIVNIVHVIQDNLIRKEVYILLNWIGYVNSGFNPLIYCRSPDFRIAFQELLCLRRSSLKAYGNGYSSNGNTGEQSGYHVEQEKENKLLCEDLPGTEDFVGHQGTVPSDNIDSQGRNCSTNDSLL
Target sequence in this assay (P32121 whole entry partner): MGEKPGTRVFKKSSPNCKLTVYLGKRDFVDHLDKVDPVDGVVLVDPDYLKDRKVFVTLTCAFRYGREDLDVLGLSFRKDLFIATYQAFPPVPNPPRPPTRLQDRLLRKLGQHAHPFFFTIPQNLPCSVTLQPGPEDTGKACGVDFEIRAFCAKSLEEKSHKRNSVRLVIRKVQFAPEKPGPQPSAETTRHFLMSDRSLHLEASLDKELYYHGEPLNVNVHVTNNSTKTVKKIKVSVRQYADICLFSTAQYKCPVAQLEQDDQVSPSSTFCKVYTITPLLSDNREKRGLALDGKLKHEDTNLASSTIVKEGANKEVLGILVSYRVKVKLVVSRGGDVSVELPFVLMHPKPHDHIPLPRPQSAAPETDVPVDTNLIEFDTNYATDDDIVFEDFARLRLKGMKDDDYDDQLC

[4] = biological target: T4, •1A-AR (Homo sapiens, UniProt P35348); assay: radioligand binding assay, α1A-AR, [3H]prazosin; conditions: radioligand [3H]prazosin; values given as a range are from screening experiments with a low number of repeats; read-out: Ki •1A-AR [3H]prazosin
T4 sequence (P35348 1-466): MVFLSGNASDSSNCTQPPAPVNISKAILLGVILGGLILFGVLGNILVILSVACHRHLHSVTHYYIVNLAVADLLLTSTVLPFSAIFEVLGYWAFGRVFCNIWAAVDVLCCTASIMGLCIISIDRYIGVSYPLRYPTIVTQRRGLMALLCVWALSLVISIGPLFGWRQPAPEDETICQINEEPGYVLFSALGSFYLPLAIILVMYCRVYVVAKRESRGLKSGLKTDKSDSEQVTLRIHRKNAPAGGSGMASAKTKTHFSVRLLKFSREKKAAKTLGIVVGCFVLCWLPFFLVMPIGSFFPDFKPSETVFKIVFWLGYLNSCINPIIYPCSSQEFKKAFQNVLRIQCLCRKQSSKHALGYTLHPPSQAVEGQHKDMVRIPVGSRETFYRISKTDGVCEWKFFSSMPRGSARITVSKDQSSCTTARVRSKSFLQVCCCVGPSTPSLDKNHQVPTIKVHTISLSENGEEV

[5] = biological target: T2, β1-AR; assay: β-arrestin-2 recruitment assay at β1-AR; format: cell-based; conditions: for β-arrestin-2 recruitment β1-AR Emax: relative to norepinephrine
Target sequence in this assay (P08588 whole entry): as the sequence (P08588 whole entry) above
Target sequence in this assay (P32121 whole entry partner): as the sequence (P32121 whole entry partner) above

[6] = biological target: T3, β2-AR; assay: radioligand binding assay, β2-AR, [3H]CGP12177
Method: as §1
Target sequence in this assay (P07550 whole entry): as the sequence (P07550 whole entry) above

[7] = radioligand [3H]CGP12177, read-out: Ki β1-AR [3H]CGP12177
[8] = n.d. = could not be determined because of lack of activity, read-out: β-arrestin-2 recruitment β2-AR EC50
[9] = n.d. = could not be determined because of lack of activity, ranges from screening experiments with a low number of repeats, read-out: β-arrestin-2 recruitment β1-AR EC50
[10] = radioligand [3H]CGP12177, values given as a range are from screening experiments with a low number of repeats, read-out: Ki β2-AR [3H]CGP12177
[11] = Ki β1-AR [3H]CGP12177, radioligand [3H]CGP12177
[12] = β-arrestin-2 recruitment β2-AR EC50, n.d. = could not be determined because of lack of activity

Compound	Ki [1]	Ki [2, 7]	EC50 [3, 8]	β-arrestin-2 recruitment β2-AR Emax [3]	β-arrestin-2 recruitment β1-AR Emax [5]	Ki [6, 10]	other results
CN[C@@H]1CCc2c(ccc(O)c2O)[C@H]1O [AS443, (5R,6R)-6-(methylamino)-5,6,7,8-tetrahydronaphthalene-1,2,5-triol]	13 µM	38 µM	0.026 µM	112 % norepinephrine	60 % norepinephrine	0.14 µM	Ki [4]: 17 µM; EC50 [5, 9]: 38 µM
CC(C)N[C@@H]1CCc2c(ccc(O)c2O)[C@@H]1O [JS 3-99]				100 % norepinephrine			Ki [2, 11]: 49 µM; EC50 [3, 12]: 1.2 µM; Ki ([6]; Ki β2-AR [3H]CGP12177): 1.9 µM
CC(C)N[C@H]1CCc2c(ccc(O)c2O)[C@H]1O [AS424B, (R,S)-1,5,6-trihydroxy-N-isopropyl-1,2,3,4-tetrahydronaphthalen-2-aminium TFA]				91 % norepinephrine			Ki [2, 11]: 24 µM; EC50 [3, 12]: 0.35 µM; Ki ([6]; Ki β2-AR [3H]CGP12177): 0.45 µM
Oc1ccc2c(c1O)CC[C@@H](NC(CF)CF)[C@@H]2O [LM 103, (5R,6R)-6-((1,3-difluoropropan-2-yl)amino)-5,6,7,8-tetrahydronaphthalene-1,2,5-triol]	53 µM	10 µM	0.64 µM	109 % norepinephrine	18 % norepinephrine	0.63 µM	Ki [4]: > 100 µM; EC50 [5, 9]: 12 µM
COCC(COC)N[C@@H]1CCc2c(ccc(O)c2O)[C@H]1O [LM 114, (5R,6R)-6-((1,3-dimethoxypropan-2-yl)amino)-5,6,7,8-tetrahydronaphthalene-1,2,5-triol]	6 to 12 µM	40 to 80 µM	0.5 to 1 µM	125 % norepinephrine	35 % norepinephrine	0.6 to 1.5 µM	Ki [4]: 10 to 20 µM; EC50 [5, 9]: 30 to 60 µM
N[C@@H]1CCc2cc(O)c(O)cc2C1 [AS LM16]		83 µM		<5 % norepinephrine	<5 % norepinephrine	76 µM	
CC(C)(C)CN[C@@H]1CCc2c(ccc(O)c2O)[C@H]1O [LM 117, (5R,6R)-6-(neopentylamino)-5,6,7,8-tetrahydronaphthalene-1,2,5-triol]	15 to 30 µM	≥ 50 µM	0.05 to 0.12 µM	116 % norepinephrine	17 % norepinephrine	0.25 to 0.7 µM	Ki [4]: 10 to 20 µM; EC50 [5, 9]: 10 to 20 µM
CNC1CCc2c(ccc(O)c2O)C1 (racemic) [AS LM33]		90 µM	2.1 µM	125 % norepinephrine	<10 % norepinephrine	46 µM	
C[Si](C)(C)CN[C@@H]1CCc2c(ccc(O)c2O)[C@H]1O [LM 118, (5R,6R)-6-(((trimethylsilyl)methyl)amino)-5,6,7,8-tetrahydronaphthalene-1,2,5-triol]	8 to 15 µM	≥ 50 µM	0.12 to 0.25 µM	119 % norepinephrine	40 % norepinephrine	0.2 to 0.5 µM	Ki [4]: 5 to 10 µM; EC50 [5, 9]: 25 to 70 µM
Oc1ccc2c(c1O)CC[C@@H](NC1COC1)[C@@H]2O [LM 113, (5R,6R)-6-(oxetan-3-ylamino)-5,6,7,8-tetrahydronaphthalene-1,2,5-triol]	25 to 45 µM	≥ 50 µM	0.2 to 0.4 µM	115 % norepinephrine	20 % norepinephrine	0.6 to 1.5 µM	Ki [4]: ≥ 60 µM; EC50 [5, 9]: > 100 µM
NC[C@H](O)c1ccc(O)c(O)c1 [noradrenaline, reference compound]				100 % norepinephrine	100 % norepinephrine		
CC(C)N[C@H]1CCc2cc(O)c(O)cc2[C@H]1O (relative stereo) [JS 3-71, cis-2-(isopropylamino)-1,2,3,4-tetrahydronaphthalene-1,6,7-triol trifluoroacetate]		> 50 µM				> 50 µM	
O=C(O)C(F)(F)F.Oc1ccc2c(c1O)CC[C@H](NC1CCCC1)[C@H]2O [JS 3-51, (1 S,2S)-6-(cyclopentylamino)-5,6,7,8-tetrahydronaphthalene-1,2,5-triol trifluoroacetate]		27 µM	0.12 µM	93 % norepinephrine		0.24 µM	
NC1CCc2c(ccc(O)c2O)C1 (single isomer, unassigned) [AS LM27]		46 µM	2.1 µM	84 % norepinephrine	<5 % norepinephrine	7.6 µM	
N[C@H]1CCc2cc(O)c(O)cc2C1 [AS LM15]		31 µM		<5 % norepinephrine	<5 % norepinephrine		
O=C(O)C(F)(F)F.Oc1ccc2c(c1O)CC[C@@H](NC1CCCC1)[C@@H]2O [JS 3-159, (1R,2R)-6-(Cyclopentylamino)-5,6,7,8-tetrahydronaphthalene-1,2,5-triol trifluoroacetate]		7.1 µM	0.018 µM	97 % norepinephrine		0.025 µM	
CNC1CCc2cc(O)c(O)cc2C1 (racemic) [AS LM31]		44 µM	12 µM	22 % norepinephrine	<5 % norepinephrine	80 µM	
CC(C)N[C@H]1CCc2c(ccc(O)c2O)[C@@H]1O [JS 3-97]							Ki [2, 11]: > 50 µM; Ki ([6]; Ki β2-AR [3H]CGP12177): 0.37 µM
Oc1ccc2c(c1O)CC[C@@H](NC1CCCC1)[C@H]2O [JS 3-65, (1 S,2R)-6-(Cyclopentylamino)-5,6,7,8-tetrahydronaphthalene-1,2,5-triol trifluoroacetate]		> 50 µM				2.5 µM	
CC(C)N[C@@H]1CCc2c(ccc(O)c2O)[C@H]1O [AS424A, (R,R)-1,5,6-trihydroxy-N-isopropyl-1,2,3,4-tetrahydronaphthalen-2-aminium TFA]	71 µM			103 % norepinephrine	82 % norepinephrine		Ki [2, 11]: 2.1 µM; EC50 [3, 12]: 0.024 µM; EC50 [5]: 1.2 µM; selectivity for β2-AR over β1-AR [6]: high selectivity; Ki ([6]; read-out: Ki β2-AR [3H]CGP12177): 0.032 µM
NC1CCc2c(ccc(O)c2O)C1 (single isomer, unassigned) [AS LM28]		> 100 µM	11 µM	77 % norepinephrine	<10 % norepinephrine	29 µM	
CC(C)N[C@@H]1CCc2cc(O)c(O)cc2[C@H]1O (relative stereo) [JS 3-89, trans-2-(Isopropylamino)-1,2,3,4-tetrahydronaphthalene-1,6,7-triol trifluoroacetate]		> 50 µM				> 50 µM	
Oc1ccc2c(c1O)CC[C@H](NC1CCCC1)[C@@H]2O [JS 3-55, (1R,2S)-6-(cyclopentylamino)-5,6,7,8-tetrahydronaphthalene-1,2,5-triol trifluoroacetate]		> 50 µM				> 20 µM	
